For three molecules, inhibition results are on record in ChEMBL document CHEMBL3627608, “Crystal structures of human RIP2 kinase catalytic domain complexed with ATP-competitive inhibitors: Foundations for understanding inhibitor selectivity” (Bioorg Med Chem, 2015).

Assay [1] concerns the target T1, Serine/threonine-protein kinase Sgk1 (Homo sapiens) (UniProt O00141).
T1 sequence (whole entry): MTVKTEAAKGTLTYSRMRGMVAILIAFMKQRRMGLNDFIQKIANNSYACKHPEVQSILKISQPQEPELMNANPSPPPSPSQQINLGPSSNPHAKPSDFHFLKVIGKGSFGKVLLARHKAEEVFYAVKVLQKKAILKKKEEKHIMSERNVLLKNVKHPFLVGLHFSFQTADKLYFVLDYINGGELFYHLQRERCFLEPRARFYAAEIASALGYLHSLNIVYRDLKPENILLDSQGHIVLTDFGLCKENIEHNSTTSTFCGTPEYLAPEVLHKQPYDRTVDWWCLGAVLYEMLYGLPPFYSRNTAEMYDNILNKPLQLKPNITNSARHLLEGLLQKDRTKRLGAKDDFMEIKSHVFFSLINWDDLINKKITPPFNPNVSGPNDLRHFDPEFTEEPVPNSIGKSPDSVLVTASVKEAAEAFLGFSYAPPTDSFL
The experiment in a line: Inhibition of SGK1 (unknown origin) at 10 uM after 120 mins P33 radiolabeled kinase activity assay.

In assay [2] the target is T2, Ephrin type-B receptor 3 (Homo sapiens) (UniProt P54753).
T2 sequence (whole entry): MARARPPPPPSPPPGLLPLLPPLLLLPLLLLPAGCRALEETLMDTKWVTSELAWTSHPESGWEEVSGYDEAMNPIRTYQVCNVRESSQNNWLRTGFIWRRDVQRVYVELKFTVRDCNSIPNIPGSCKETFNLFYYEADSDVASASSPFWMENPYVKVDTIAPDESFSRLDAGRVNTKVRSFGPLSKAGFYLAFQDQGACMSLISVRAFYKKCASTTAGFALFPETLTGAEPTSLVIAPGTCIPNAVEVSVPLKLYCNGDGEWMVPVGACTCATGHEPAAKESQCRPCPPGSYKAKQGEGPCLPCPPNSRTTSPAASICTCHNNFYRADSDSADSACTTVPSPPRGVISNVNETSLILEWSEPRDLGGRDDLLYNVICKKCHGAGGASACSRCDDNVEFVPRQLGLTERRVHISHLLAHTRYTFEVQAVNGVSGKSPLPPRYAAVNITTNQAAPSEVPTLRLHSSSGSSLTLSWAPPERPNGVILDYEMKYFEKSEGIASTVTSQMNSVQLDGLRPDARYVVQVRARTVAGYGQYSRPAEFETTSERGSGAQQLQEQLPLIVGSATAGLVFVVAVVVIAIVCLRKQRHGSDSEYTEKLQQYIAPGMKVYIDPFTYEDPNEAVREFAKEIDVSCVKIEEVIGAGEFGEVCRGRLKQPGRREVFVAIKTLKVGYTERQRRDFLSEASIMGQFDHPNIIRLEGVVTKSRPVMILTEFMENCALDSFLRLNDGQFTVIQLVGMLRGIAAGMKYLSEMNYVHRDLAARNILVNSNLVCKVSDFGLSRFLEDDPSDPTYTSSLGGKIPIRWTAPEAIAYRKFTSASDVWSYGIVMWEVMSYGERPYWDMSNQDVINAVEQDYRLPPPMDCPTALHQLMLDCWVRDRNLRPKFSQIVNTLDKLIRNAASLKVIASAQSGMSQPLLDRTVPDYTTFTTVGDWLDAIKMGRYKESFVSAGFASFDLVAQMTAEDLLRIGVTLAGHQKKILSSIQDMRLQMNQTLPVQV
Kind of assay: Inhibition of EPHB3 (unknown origin) at 10 uM after 120 mins P33 radiolabeled kinase activity assay.

Assay [3] has as its target Serine/threonine-protein kinase PAK 2 (Homo sapiens) (UniProt Q13177). The experiment in a line: Inhibition of PAK2 (unknown origin) at 10 uM after 120 mins P33 radiolabeled kinase activity assay.
In assay [4] the target is T3, Inhibitor of nuclear factor kappa-B kinase subunit beta (Homo sapiens) (UniProt O14920).
T3 sequence (whole entry): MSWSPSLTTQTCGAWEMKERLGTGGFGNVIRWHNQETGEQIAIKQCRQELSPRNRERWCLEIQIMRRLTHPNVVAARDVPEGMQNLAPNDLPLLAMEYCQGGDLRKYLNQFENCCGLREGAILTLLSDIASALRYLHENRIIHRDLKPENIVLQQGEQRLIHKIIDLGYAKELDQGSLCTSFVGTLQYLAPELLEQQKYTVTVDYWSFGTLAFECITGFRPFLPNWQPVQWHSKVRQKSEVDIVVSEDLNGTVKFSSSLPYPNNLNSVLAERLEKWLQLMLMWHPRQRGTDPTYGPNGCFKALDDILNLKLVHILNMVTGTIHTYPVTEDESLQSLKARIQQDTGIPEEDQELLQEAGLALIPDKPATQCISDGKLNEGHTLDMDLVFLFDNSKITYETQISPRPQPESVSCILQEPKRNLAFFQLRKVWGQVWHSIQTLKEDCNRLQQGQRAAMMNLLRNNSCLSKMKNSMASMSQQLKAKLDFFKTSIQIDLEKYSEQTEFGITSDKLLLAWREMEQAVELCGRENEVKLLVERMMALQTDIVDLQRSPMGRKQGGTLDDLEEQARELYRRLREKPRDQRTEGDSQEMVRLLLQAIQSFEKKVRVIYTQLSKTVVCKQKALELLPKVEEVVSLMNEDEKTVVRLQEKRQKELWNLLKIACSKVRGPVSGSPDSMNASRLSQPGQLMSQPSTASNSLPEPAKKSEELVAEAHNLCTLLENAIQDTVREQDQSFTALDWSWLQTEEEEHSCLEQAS
Kind of assay: Inhibition of IKKbeta (unknown origin) at 10 uM after 120 mins P33 radiolabeled kinase activity assay.

Assay [5] deals with T4, Testis-specific serine/threonine-protein kinase 1 (Homo sapiens) (UniProt Q9BXA7).
T4 sequence (whole entry): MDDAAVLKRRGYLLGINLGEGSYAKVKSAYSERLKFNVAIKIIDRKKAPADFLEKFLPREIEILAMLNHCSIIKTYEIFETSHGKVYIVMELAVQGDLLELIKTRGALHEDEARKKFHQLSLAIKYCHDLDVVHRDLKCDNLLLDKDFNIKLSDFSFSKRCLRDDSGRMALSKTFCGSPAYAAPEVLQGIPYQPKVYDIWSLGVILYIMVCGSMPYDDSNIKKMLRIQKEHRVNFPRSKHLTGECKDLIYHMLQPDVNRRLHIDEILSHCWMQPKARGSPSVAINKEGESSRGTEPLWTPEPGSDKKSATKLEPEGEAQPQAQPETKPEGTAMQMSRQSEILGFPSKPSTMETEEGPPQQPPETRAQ
The experiment in a line: Inhibition of STK22D (unknown origin) at 10 uM after 120 mins P33 radiolabeled kinase activity assay.

Molecules are shown by their SMILES.

Chain of Serine/threonine-protein kinase PAK 2 (Homo sapiens) (Q13177 whole entry): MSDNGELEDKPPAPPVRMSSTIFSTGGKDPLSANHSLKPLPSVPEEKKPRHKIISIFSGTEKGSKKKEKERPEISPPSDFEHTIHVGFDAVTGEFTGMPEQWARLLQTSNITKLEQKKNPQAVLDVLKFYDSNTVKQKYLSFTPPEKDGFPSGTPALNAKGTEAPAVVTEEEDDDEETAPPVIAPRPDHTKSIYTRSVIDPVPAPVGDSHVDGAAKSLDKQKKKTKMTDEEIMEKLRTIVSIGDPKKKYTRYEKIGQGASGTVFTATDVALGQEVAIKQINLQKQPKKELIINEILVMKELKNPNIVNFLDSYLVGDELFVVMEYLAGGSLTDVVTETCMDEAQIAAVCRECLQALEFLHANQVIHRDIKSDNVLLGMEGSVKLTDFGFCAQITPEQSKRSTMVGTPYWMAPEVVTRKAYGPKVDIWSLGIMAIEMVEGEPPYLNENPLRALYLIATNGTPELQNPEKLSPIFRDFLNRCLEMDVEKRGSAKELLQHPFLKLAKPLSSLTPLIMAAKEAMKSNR

`CS(=O)(=O)c1cccc(Nc2nccc(-c3sc(N4CCOCC4)nc3-c3cccc(NS(=O)(=O)c4c(F)cccc4F)c3)n2)c1`: the inhibition amounted to 30.1% in assay [1]; 7.1% in assay [2]; 15.8% in assay [3]; 1.51% in assay [4]; 13.6% in assay [5].

Turning to `CC(C)(C)c1cc(NC(=O)Nc2ccc(Oc3ccncc3)cc2)no1`, the inhibition in assay [1] is 1.68%; in assay [2], 93.3%; in assay [3] it was 9.28%; in assay [4], -0.16%; in assay [5] it was 7.33%.

With `COCCNC(=O)c1ccc2c(c1)nc(-c1cnc(-c3ccc(Cl)cc3)[nH]1)n2CCOC`, the inhibition in assay [1] was 10.1%; in assay [2], 5.87%; in assay [3] it was 6.88%; in assay [4] it was -5.88%; in assay [5], 7.17%.

As usually defined, the inhibition is the relative decrease from the control value, in per cent.
